# Data from patent US20250213530A1 (GH RESEARCH IRELAND LIMITED, priority 2022, published 2025).
# What was measured:
# [1] = system: patient with postpartum depression (PPD); assay: Clinical trial of inhaled 5-MeO-DMT (IDR, 6 mg then 12 mg), MADRS; type: in vivo, human; conditions: one PPD patient; for Total MADRS improvement / Total MADRS score: baseline 29
# Text: (§1) The patient completed all planned visit days.
# [2] = system: patient with postpartum depression (PPD); assay: Clinical trial of inhaled 5-MeO-DMT (IDR, 6 mg then 12 mg), BPRS; type: in vivo, human; conditions: one PPD patient, baseline 6
# Text: as §1
# [3] = system: patient with postpartum depression (PPD); assay: Clinical trial of inhaled 5-MeO-DMT (IDR, 6 mg then 12 mg), Barkin Index of Maternal Functioning (BIMF); type: in vivo, human; conditions: one PPD patient
# Text: Maternal functioning can, for instance, be assessed using the Barkin Index of Maternal Functioning (BIMF). This index was designed to measure functioning in the year after childbirth. The BIMF is a 20-item self-report measure of functioning. Each item is assigned a score between 0 and 6 so that the maximum total score is 120. The higher the score, the better maternal functioning is rated.
# The BIMF identifies the key functional domains of a mother during the postnatal period as: self-care, infant care, mother-child interaction, psychological wellbeing of the mother, social support, management, and adjustment.
# as §1
# [4] = system: patient with postpartum depression (PPD); assay: Clinical trial of inhaled 5-MeO-DMT, safety and tolerability; type: in vivo, human; conditions: one PPD patient
# Text: as §1
# [5] = Pharmacokinetics after inhalation of 5-MeO-DMT, LC-MS/MS
structure (smiles),measurement,setting,value
COc1ccc2[nH]cc(CCN(C)C)c2c1 [5-MeO-DMT],standard criteria for MADRS remission (MADRS total score equal or less than 10),[1],fulfilled
same,standard criteria for MADRS response (at least 50% improvement from baseline),[1],fulfilled
same,Total MADRS improvement,[1]; 2 hr,24
same,Total MADRS score,[1]; 2 hr,5
same,Total MADRS improvement,[1]; Day 1,29
same,Total MADRS score,[1]; Day 1,0
same,Total MADRS improvement,[1]; Day 7,28
same,Total MADRS score,[1]; Day 7,1
same,time to clinical remission after administration,[1]; IDR 6 mg then 12 mg,≤ 2 h
same,BPRS Tension improvement,[2]; Day 1,5
same,BPRS Tension improvement,[2]; Discharge,5
same,"BIMF item 19 (As time goes on, I am getting better at taking care of my baby) score","[3]; Day 7, Day 0 score 0",1
same,BIMF item 16 (I worry about how other people judge me (as a mother)) score,"[3]; Day 7, Day 0 score 3",5
same,BIMF item 13 (I am taking good care of my physical needs) score,"[3]; Day 7, Day 0 score 4",5
same,BIMF item 5 (I am able to relax and enjoy time with my baby) score,"[3]; Day 7, Day 0 score 5",6
same,BIMF item 9 (I am getting enough encouragement from other people) score,"[3]; Day 7, Day 0 score 5",6
same,BIMF item 10 (I trust my own feelings (instincts) when it comes to taking care of my baby) score,"[3]; Day 7, Day 0 score 5",6
same,BIMF item 11 (I take a little time each week to do something for myself) score,"[3]; Day 7, Day 0 score 5",6
same,BIMF item 17 (I am able to take care of my baby and my other responsibilities) score,"[3]; Day 7, Day 0 score 5",5
same,BIMF functional domain Adjustment score,"[3]; Day 7, Day 0 score 5, maximum possible 12",6
same,BIMF item 3 (I am comfortable with the way I've chosen to feed my baby) score,"[3]; Day 7, Day 0 score 6",6
same,BIMF item 6 (There are people in my life that I can trust to care for my baby when I need a break) score,"[3]; Day 7, Day 0 score 6",6
same,BIMF item 8 (I am getting enough adult interaction) score,"[3]; Day 7, Day 0 score 6",6
same,BIMF item 12 (I am taking good care of my baby's physical needs) score,"[3]; Day 7, Day 0 score 6",6
same,BIMF item 14 (I make good decisions about my baby's health and well being) score,"[3]; Day 7, Day 0 score 6",6
same,BIMF item 20 (I am satisfied with the job I am doing as a new mother) score,"[3]; Day 7, Day 0 score 6",5
same,BIMF functional domain Self Care score,"[3]; Day 7, Day 0 score 9, maximum possible 18",13
same,BIMF functional domain Infant Care score,"[3]; Day 7, Day 0 score 12, maximum possible 12",12
same,BIMF functional domain Mother-Child Interaction score,"[3]; Day 7, Day 0 score 15, maximum possible 18",17
same,BIMF functional domain Social Support score,"[3]; Day 7, Day 0 score 17, maximum possible 18",18
same,BIMF functional domain Management score,"[3]; Day 7, Day 0 score 28, maximum possible 36",33
same,BIMF functional domain Psychological Well-being score,"[3]; Day 7, Day 0 score 44, maximum possible 60",53
same,BIMF total score improvement,"[3]; Day 7, from 92 to 105",14%
same,BIMF TOTAL Δ (Day 7),[3]; Day 7 vs Day 0,13
same,BIMF functional domain Adjustment % Improvement,[3]; Day 7 vs Day 0,20.00%
same,BIMF functional domain Infant Care % Improvement,[3]; Day 7 vs Day 0,0.00%
same,BIMF functional domain Management % Improvement,[3]; Day 7 vs Day 0,18%
same,BIMF functional domain Self Care % Improvement,[3]; Day 7 vs Day 0,44%
same,BIMF item 3 (I am comfortable with the way I've chosen to feed my baby) Δ (Day 7),[3]; Day 7 vs Day 0,0
same,BIMF item 5 (I am able to relax and enjoy time with my baby) Δ (Day 7),[3]; Day 7 vs Day 0,1
same,BIMF item 6 (There are people in my life that I can trust to care for my baby when I need a break) Δ (Day 7),[3]; Day 7 vs Day 0,0
same,BIMF item 8 (I am getting enough adult interaction) Δ (Day 7),[3]; Day 7 vs Day 0,0
same,BIMF item 9 (I am getting enough encouragement from other people) Δ (Day 7),[3]; Day 7 vs Day 0,1
same,BIMF item 10 (I trust my own feelings (instincts) when it comes to taking care of my baby) Δ (Day 7),[3]; Day 7 vs Day 0,1
same,BIMF item 11 (I take a little time each week to do something for myself) Δ (Day 7),[3]; Day 7 vs Day 0,1
same,BIMF item 12 (I am taking good care of my baby's physical needs) Δ (Day 7),[3]; Day 7 vs Day 0,0
same,BIMF item 13 (I am taking good care of my physical needs) Δ (Day 7),[3]; Day 7 vs Day 0,1
same,BIMF item 14 (I make good decisions about my baby's health and well being) Δ (Day 7),[3]; Day 7 vs Day 0,0
same,BIMF item 17 (I am able to take care of my baby and my other responsibilities) Δ (Day 7),[3]; Day 7 vs Day 0,0
same,"BIMF item 19 (As time goes on, I am getting better at taking care of my baby) Δ (Day 7)",[3]; Day 7 vs Day 0,1
same,BIMF item 20 (I am satisfied with the job I am doing as a new mother) Δ (Day 7),[3]; Day 7 vs Day 0,−1
same,"ECG (at 3 hours), safety laboratory analyses (at 7 days), CADSS (at 3 hours, 1 day and 7 days)",[4],unremarkable
same,"reported adverse events (cramping left abdominal pain and headache, both on Day 0)",[4],"mild, short-lasting and resolved spontaneously"
same,tolerability of the inhalation procedure,[4],well tolerated with no inhalation-related adverse events
same,changes in vital parameters,"[4]; shortly after administration, no other noteworthy changes","temporary, clinically non-relevant increase in heart rate and blood pressure"
same,plasma concentration as % of Cmax,"[5]; 10 minutes after administration, whole dose range tested (6 mg, 12 mg, 18 mg)",≤ 10 % of Cmax
same,plasma concentration as % of Cmax,"[5]; after 2 hours, whole dose range tested (6 mg, 12 mg, 18 mg)",≤ 1 % of Cmax
same,detectability in the plasma,"[5]; after 3 hours, whole dose range tested (6 mg, 12 mg, 18 mg)",no longer detectable
same,"pharmacokinetic measurements, uptitration dosing schemes",[5]; compared with the single dose results,Substantially similar results
same,accumulation upon repeated administration,[5]; repeated administration within a time frame of 1 to 4 hours,No accumulation
